Measurements published in patent US20180169045A1, “AMINO ACID COMPOSITIONS AND METHODS FOR THE TREATMENT OF LIVER DISEASES” (AXCELLA HEALTH INC., priority 2016, published 2018).

Key:
Format in all cases: cell-based
[1] = tested on: Primary human hepatic stellate cells; experiment: TNFα-induced MCP-1 secretion in primary human hepatic stellate cells (ELISA); settings: for MCP-1 chemokine secretion, in words: primary human hepatic stellate cells from two donors, 3 ng/mL TNFα, 12 h
Experimental: (§1) Primary human hepatic stellate cells were obtained from Samsara Sciences based on the following criteria for selecting donors: adult age (between 18 and 50 years), normal BMI (>18.5 and <25), and absence of confounding liver disease. Primary human hepatic stellate cells grown in Complete HSC Medium to ˜80% confluence in T75 or T150 flasks below passage 10 were seeded into sterile, collagen I coated, 96-well optical plastic microplates (ThermoScientific, 152036) at 4000 cells per well ([…]) and incubated for 6 hours at 37° C., 5% CO2 in a humidified incubator.
(§2) After 6 hours, plates were removed from the incubator and the medium gently pipetted off and washed once with 150 μL per well DPBS. The DPBS was removed and the pretreatment medium (±single amino acid dropout, 1×HMDB DMEM+3% dialyzed FBS+0.2% Primocin, ±supplemental amino acid dose; see experiment for medium composition) was applied to the cells at 150 μL per well. Plates were returned to the incubator overnight, ˜14-15 hours.
(§3) After overnight pretreatment, the medium was removed from the cells, and the same pretreatment medium, now supplemented with 3 ng/mL TNFα is applied. Each plate contained 3 ng/mL TNFα in 1× human plasma amino acid (HMDB or PAA) concentration medium, 0 ng/mL in 1×HMDB, and 3 ng/mL TNFα+50 nM Bengamide in 1×HMDB to serve as controls. Plates were incubated for 12 hours at 37° C., 5% CO2.
(§4) After 12 hour stimulus with TNFα, supernatant was removed and frozen at −80° C. in two separate aliquots. Plates were washed gently once with DPBS and 100 μL per well of 1×HMDB DMEM+3% dialyzed FBS+0.2% Primocin+10% CCK-8 viability reagent (Dojindo). Plates were incubated for 1 hour at 37° C., 5% CO2.
(§5) After 1 hour of incubation, viability was measured on the Synergy plate reader (Absorbance at 977 (test), 900 (reference), and 450 (CCK8) nm). Immediately, the medium was removed and the plates were fixed with 70 μL per well 4% paraformaldehyde in PBS at room temperature for 20 minutes, followed by two 150 μL PBS washes, and stored with 100 μL per well PBS at 4° C. until immunofluorescence staining.
(§6) Human CCL2/MCP1 and Human IL-6 were measured by ELISA (Human […] DuoSet ELISA, R&D Systems; Human IL-6 DuoSet ELISA, R&D Systems) at 1/5 and 1/20 dilution in 1× Reagent Diluent (Reagent Ancillary Kit 2, R&D Systems). Data were normalized to the specific per well cell density determined by Hoechst stained nuclei count.

[2] = tested on: Primary human hepatic stellate cells; experiment: TNFα-induced IL-6 secretion in primary human hepatic stellate cells (ELISA); settings: for IL-6 cytokine secretion, in words: primary human hepatic stellate cells from two donors, 3 ng/mL TNFα, 12 h
Experimental: as §1, §2, §3, §4, §5, §6

[3] = tested on: LX-2 hepatic stellate cells; experiment: TGFβ1-induced fibrogenic gene expression (Col1a1, Acta2, Timp2) in LX-2 cells, qRT-PCR; settings: TGFβ1 5 ng/mL, combinations at 40× HMDB concentrations, N-acetylcysteine 10 mM

N=C(N)NCCC[C@H](N)C(=O)O [Arginine, L-Arginine]
MCP-1 chemokine secretion, in words [1]: no significant impact | IL-6 cytokine secretion, in words [2]: no significant effect

NC(=O)CC[C@H](N)C(=O)O [Glutamine, L-Glutamine]
Fold Change MCP1 Secretion Normalized Per Cell, Mean ([1]; donor 3, 749 μM): 0.7048 | Fold Change MCP1 Secretion Normalized Per Cell, Mean ([1]; donor 3, 3747 μM): 0.6036 | Fold Change MCP1 Secretion Normalized Per Cell, Mean ([1]; donor 3, 11242 μM): 0.6106 | Fold Change MCP1 Secretion Normalized Per Cell, Mean ([1]; donor 3, 22484 μM): 0.6212 | Fold Change MCP1 Secretion Normalized Per Cell, Mean ([1]; donor 4, 749 μM): 0.7782 | Fold Change MCP1 Secretion Normalized Per Cell, Mean ([1]; donor 4, 3747 μM): 0.6639 | Fold Change MCP1 Secretion Normalized Per Cell, Mean ([1]; donor 4, 11242 μM): 0.7129 | Fold Change MCP1 Secretion Normalized Per Cell, Mean ([1]; donor 4, 22484 μM): 0.7039 | MCP-1 chemokine secretion, in words [1]: reduced MCP1 secretion in both donors but was only statistically significant in one of two donors | Fold Change IL-6 Secretion Normalized Per Cell, Mean ([2]; donor 1, Conc. 749 μM): 0.6320 | Fold Change IL-6 Secretion Normalized Per Cell, Mean ([2]; donor 1, Conc. 3747 μM): 0.5460 | Fold Change IL-6 Secretion Normalized Per Cell, Mean ([2]; donor 1, Conc. 11242 μM): 0.5136 | Fold Change IL-6 Secretion Normalized Per Cell, Mean ([2]; donor 1, Conc. 22484 μM): 0.5138 | Fold Change IL-6 Secretion Normalized Per Cell, Mean ([2]; donor 2, Conc. 749 μM): 0.7673 | Fold Change IL-6 Secretion Normalized Per Cell, Mean ([2]; donor 2, Conc. 11242 μM): 0.6478 | Fold Change IL-6 Secretion Normalized Per Cell, Mean ([2]; donor 2, Conc. 22484 μM): 0.5993 | IL-6 cytokine secretion, in words [2]: significantly reduced IL-6 secretion in both donors

CC[C@H](C)[C@H](N)C(=O)O [Isoleucine, L-Isoleucine]
Fold Change MCP1 Secretion Normalized Per Cell, Mean ([1]; donor 3, 1328 μM): 1.5550 | Fold Change MCP1 Secretion Normalized Per Cell, Mean ([1]; donor 3, 3320 μM): 1.2169 | Fold Change MCP1 Secretion Normalized Per Cell, Mean ([1]; donor 3, 6639 μM): 1.2084 | Fold Change MCP1 Secretion Normalized Per Cell, Mean ([1]; donor 4, 1328 μM): 1.3338 | Fold Change MCP1 Secretion Normalized Per Cell, Mean ([1]; donor 4, 3320 μM): 0.8830 | Fold Change MCP1 Secretion Normalized Per Cell, Mean ([1]; donor 4, 6639 μM): 0.9103 | Fold Change IL-6 Secretion Normalized Per Cell, Mean ([2]; donor 1, Conc. 1328 μM): 1.0233 | Fold Change IL-6 Secretion Normalized Per Cell, Mean ([2]; donor 1, Conc. 3320 μM): 1.1156 | Fold Change IL-6 Secretion Normalized Per Cell, Mean ([2]; donor 1, Conc. 6639 μM): 1.0859 | Fold Change IL-6 Secretion Normalized Per Cell, Mean ([2]; donor 2, Conc. 1328 μM): 1.1020 | Fold Change IL-6 Secretion Normalized Per Cell, Mean ([2]; donor 2, Conc. 3320 μM): 0.9096 | Fold Change IL-6 Secretion Normalized Per Cell, Mean ([2]; donor 2, Conc. 6639 μM): 1.1648 | IL-6 cytokine secretion, in words [2]: no significant effect

CC(C)C[C@H](N)C(=O)O [Leucine, L-Leucine]
Fold Change MCP1 Secretion Normalized Per Cell, Mean ([1]; donor 3, 3054 μM): 1.1479 | Fold Change MCP1 Secretion Normalized Per Cell, Mean ([1]; donor 3, 7635 μM): 1.3054 | Fold Change MCP1 Secretion Normalized Per Cell, Mean ([1]; donor 3, 15270 μM): 1.1808 | Fold Change MCP1 Secretion Normalized Per Cell, Mean ([1]; donor 4, 3054 μM): 1.5342 | Fold Change MCP1 Secretion Normalized Per Cell, Mean ([1]; donor 4, 7635 μM): 1.7129 | Fold Change MCP1 Secretion Normalized Per Cell, Mean ([1]; donor 4, 15270 μM): 1.5745 | MCP-1 chemokine secretion, in words [1]: no significant impact | Fold Change IL-6 Secretion Normalized Per Cell, Mean ([2]; donor 1, Conc. 3054 μM): 1.1762 | Fold Change IL-6 Secretion Normalized Per Cell, Mean ([2]; donor 1, Conc. 7635 μM): 1.1215 | Fold Change IL-6 Secretion Normalized Per Cell, Mean ([2]; donor 1, Conc. 15270 μM): 1.0767 | Fold Change IL-6 Secretion Normalized Per Cell, Mean ([2]; donor 2, Conc. 3054 μM): 1.0011 | Fold Change IL-6 Secretion Normalized Per Cell, Mean ([2]; donor 2, Conc. 7635 μM): 0.9574 | Fold Change IL-6 Secretion Normalized Per Cell, Mean ([2]; donor 2, Conc. 15270 μM): 1.0183 | IL-6 cytokine secretion, in words [2]: no significant effect

CC(=O)N[C@@H](CS)C(=O)O [N-acetylcysteine]
Col1a1 gene expression, in words [3]: reduced | Timp2 gene expression, in words [3]: reduced | Fold Change MCP1 Secretion Normalized Per Cell, Mean ([1]; donor 4, 1000 μM): 0.6437 | Fold Change MCP1 Secretion Normalized Per Cell, Mean ([1]; donor 4, 2500 μM): 0.8033 | Fold Change MCP1 Secretion Normalized Per Cell, Mean ([1]; donor 4, 5000 μM): 0.6728 | Fold Change MCP1 Secretion Normalized Per Cell, Mean ([1]; donor 4, 10000 μM): 0.5011 | Fold Change MCP1 Secretion Normalized Per Cell, Mean ([1]; donor 4, Conc. 5 X): 0.6437 | Fold Change MCP1 Secretion Normalized Per Cell, Mean ([1]; donor 4, Conc. 10 X): 0.8033 | Fold Change MCP1 Secretion Normalized Per Cell, Mean ([1]; donor 4, Conc. 20 X): 0.6728 | Fold Change MCP1 Secretion Normalized Per Cell, Mean ([1]; donor 4, Conc. 40 X): 0.5011 | MCP-1 chemokine secretion, in words [1]: significantly reduced MCP-1 secretion in both donors | Fold Change IL-6 Secretion Normalized Per Cell, Mean ([2]; donor 1, Conc. 1000 μM): 0.7141 | Fold Change IL-6 Secretion Normalized Per Cell, Mean ([2]; donor 1, Conc. 2500 μM): 0.7354 | Fold Change IL-6 Secretion Normalized Per Cell, Mean ([2]; donor 1, Conc. 5000 μM): 0.6121 | Fold Change IL-6 Secretion Normalized Per Cell, Mean ([2]; donor 1, Conc. 10000 μM): 0.5716 | Fold Change IL-6 Secretion Normalized Per Cell, Mean ([2]; donor 1, Conc. 5 X): 0.7141 | Fold Change IL-6 Secretion Normalized Per Cell, Mean ([2]; donor 1, Conc. 10 X): 0.7354 | Fold Change IL-6 Secretion Normalized Per Cell, Mean ([2]; donor 1, Conc. 20 X): 0.6121 | Fold Change IL-6 Secretion Normalized Per Cell, Mean ([2]; donor 1, Conc. 40 X): 0.5716 | Fold Change IL-6 Secretion Normalized Per Cell, Mean ([2]; donor 2, Conc. 1000 μM): 0.9161 | Fold Change IL-6 Secretion Normalized Per Cell, Mean ([2]; donor 2, Conc. 2500 μM): 0.9180 | Fold Change IL-6 Secretion Normalized Per Cell, Mean ([2]; donor 2, Conc. 5000 μM): 0.8111 | Fold Change IL-6 Secretion Normalized Per Cell, Mean ([2]; donor 2, Conc. 10000 μM): 0.7064 | Fold Change IL-6 Secretion Normalized Per Cell, Mean ([2]; donor 2, Conc. 5 X): 0.9161 | Fold Change IL-6 Secretion Normalized Per Cell, Mean ([2]; donor 2, Conc. 10 X): 0.9180 | Fold Change IL-6 Secretion Normalized Per Cell, Mean ([2]; donor 2, Conc. 20 X): 0.8111 | Fold Change IL-6 Secretion Normalized Per Cell, Mean ([2]; donor 2, Conc. 40 X): 0.7064 | IL-6 cytokine secretion, in words [2]: reduced IL-6 secretion in both donors but was only statistically significant in one of two donors

CC(C)[C@H](N)C(=O)O [Valine, L-Valine]
Fold Change MCP1 Secretion Normalized Per Cell, Mean ([1]; donor 3, 4684 μM): 1.0630 | Fold Change MCP1 Secretion Normalized Per Cell, Mean ([1]; donor 3, 11710 μM): 1.0204 | Fold Change MCP1 Secretion Normalized Per Cell, Mean ([1]; donor 3, 23420 μM): 1.2651 | Fold Change MCP1 Secretion Normalized Per Cell, Mean ([1]; donor 4, 4684 μM): 1.0942 | Fold Change MCP1 Secretion Normalized Per Cell, Mean ([1]; donor 4, 11710 μM): 1.1544 | Fold Change MCP1 Secretion Normalized Per Cell, Mean ([1]; donor 4, 23420 μM): 1.1525 | MCP-1 chemokine secretion, in words [1]: no significant impact | Fold Change IL-6 Secretion Normalized Per Cell, Mean ([2]; donor 1, Conc. 4684 μM): 0.9790 | Fold Change IL-6 Secretion Normalized Per Cell, Mean ([2]; donor 1, Conc. 11710 μM): 0.9562 | Fold Change IL-6 Secretion Normalized Per Cell, Mean ([2]; donor 1, Conc. 23420 μM): 1.0404 | Fold Change IL-6 Secretion Normalized Per Cell, Mean ([2]; donor 2, Conc. 4684 μM): 1.0383 | Fold Change IL-6 Secretion Normalized Per Cell, Mean ([2]; donor 2, Conc. 11710 μM): 0.9218 | Fold Change IL-6 Secretion Normalized Per Cell, Mean ([2]; donor 2, Conc. 23420 μM): 0.9015 | IL-6 cytokine secretion, in words [2]: no significant effect
